Assay results as given in patent US20160220602A1, “USE OF CHINESE MEDICINE PREPARATION IN PREPARING DRUG FOR PREVENTING AND/OR TREATING CROHN'S DISEASE” (TASLY PHARMACEUTICAL GROUP CO., LTD., priority 2013, published 2016).

Key:
Format in all cases: in vivo, SD rats
[1] = system: OXZ-induced SD rat Crohn's disease model; test: DAI score in oxazolone-caused Crohn's disease rat model; design: key: DAI = (weight loss % + stool character + hematochezia scores)/3; conditions: 100 mg/kg
Protocol: Grouping: the experiment was carried out by using two ways of intracolonic and intragastric administration. […] There were 10 rats each group. Method for establishing rat model: referring to the Heller method, OXZ was used to induce the SD rat Crohn's disease model (abbreviated as “OXZ model”). Neck and back skin of rats were shaved (2 cm×2 cm). Ethanol was used to prepare 5% (w/v) OXZ solution, and 0.3 ml resultant OXZ solution was dripped on the skin of rats. […] The sensitized rats were adaptively raised for 5 days, […] anesthetized by intraperitoneal injection of pentobarbital sodium. […] After completion, the rats were inverted by lifting tails for 60s to make the solution totally absorbed. […] If the rats manifested dark hair color, body weight loss, poor appetite, lassitude, watery stool or diarrhea, the model establishment was success. Administration method: after successful model establishment by OXZ, the drug was given to rats. The TCM preparation k saline solutions at corresponding dose were administered to the groups of preparation k of all doses and the […] saline solution, a positive drug, administrated to the positive control group. The rats of blank control group were normally fed, given with water and the same volume of normal saline was given in the same administration routes by referring to the dosage regime of aforesaid treatment groups. The rats of model group were administrated with the same volume of normal saline in the same administration routes. The dose of each group was as follows: […] group at 100 mg/kg rat weight, the TCM preparation k high-dose group at 2.023 g raw medicine/kg rat weight, the middle-dose group at 1.012 g raw medicine/kg rat weight and the low-dose group at 0.506 g raw medicine/kg rat weight. […] (1) General Indices: weight change and stool (e.g. stool occult blood, bloody stool and diarrhea) were observed every day to calculate DAI score. DAI score=(weight loss percentage+defecate character fraction+hematochezia fraction)/3 [table]

[2] = system: OXZ-induced SD rat Crohn's disease model; test: Colon gross damage and histopathological score, OXZ model rats; conditions: 100 mg/kg
Protocol: Grouping: the experiment was carried out by using two ways of intracolonic and intragastric administration. […] There were 10 rats each group. Method for establishing rat model: referring to the Heller method, OXZ was used to induce the SD rat Crohn's disease model (abbreviated as “OXZ model”). Neck and back skin of rats were shaved (2 cm×2 cm). Ethanol was used to prepare 5% (w/v) OXZ solution, and 0.3 ml resultant OXZ solution was dripped on the skin of rats. […] The sensitized rats were adaptively raised for 5 days, […] anesthetized by intraperitoneal injection of pentobarbital sodium. […] After completion, the rats were inverted by lifting tails for 60s to make the solution totally absorbed. […] If the rats manifested dark hair color, body weight loss, poor appetite, lassitude, watery stool or diarrhea, the model establishment was success. Administration method: after successful model establishment by OXZ, the drug was given to rats. The TCM preparation k saline solutions at corresponding dose were administered to the groups of preparation k of all doses and the […] saline solution, a positive drug, administrated to the positive control group. The rats of blank control group were normally fed, given with water and the same volume of normal saline was given in the same administration routes by referring to the dosage regime of aforesaid treatment groups. The rats of model group were administrated with the same volume of normal saline in the same administration routes. The dose of each group was as follows: […] group at 100 mg/kg rat weight, the TCM preparation k high-dose group at 2.023 g raw medicine/kg rat weight, the middle-dose group at 1.012 g raw medicine/kg rat weight and the low-dose group at 0.506 g raw medicine/kg rat weight.

[3] = system: IFN-γ; test: Serum IFN-γ by ELISA, TNBS model rats; conditions: 100 mg/kg once per day, 21 days
Protocol: Grouping: experiment was carried out by using two ways of intracolonic and intragastric administrations. […] There were 10 rats each group. Method for establishing rat model: referring to Morris method, TNBS was used to induce the SD rat Crohn's disease model (abbreviated as “TNBS model”). 24 hours before modeling, the SD rats were fasted but water was given. […] The rats of blank control group were normally fed with free access to water and the same volume of normal saline was given in the same administration routes by referring to the dosage regime of aforementioned treatment groups. The rats of model group were administrated with the same volume of normal saline in the same administration routes. […] (2) Serum indices: after final administration, the testing rats were fasted but given water. 24 hours later, blood was gained from abdominal aorta. Serum IFN-γ, IL-1, IL-4, IL-10 and Gln in intestinal mucosa were determined by enzyme-linked immunosorbent assay (ELISA) in rats.

[4] = Table 18: OXZ-model rats, route not printed in title

## Nc1ccc(O)c(C(=O)O)c1 [mesalamine, Mesalamine]
[1]; Table 14: OXZ model rats, intracolonic, 1st day
  DAI score (Mean ± SD): 0.267 ± 0.263
[1]; Table 14: OXZ model rats, intracolonic, 2nd day
  DAI score (Mean ± SD): 0.400 ± 0.378
[1]; Table 14: OXZ model rats, intracolonic, 3rd day
  DAI score (Mean ± SD): 0.300 ± 0.331
[1]; Table 14: OXZ model rats, intracolonic, 4th day
  DAI score (Mean ± SD): 0.333 ± 0.385
[1]; Table 14: OXZ model rats, intracolonic, 5th day
  DAI score (Mean ± SD): 0.800 ± 0.422
[1]; Table 14: OXZ model rats, intracolonic, 7th day
  DAI score (Mean ± SD): 1.700 ± 0.637
[1]; Table 14: OXZ model rats, intracolonic, 8th day
  DAI score (Mean ± SD): 1.500 ± 0.593
[1]; Table 14: OXZ model rats, intracolonic, 9th day
  DAI score (Mean ± SD): 0.733 ± 0.439
[1]; Table 15, as titled: intracolonic, TNBS model rats, 1st day
  DAI score (Mean ± SD): 0.600 ± 0.141
[1]; Table 15, as titled: intracolonic, TNBS model rats, 4th day
  DAI score (Mean ± SD): 0.267 ± 0.211
[1]; Table 15, as titled: intracolonic, TNBS model rats, 5th day
  DAI score (Mean ± SD): 1.000 ± 0.222
[1]; Table 15, as titled: intracolonic, TNBS model rats, 8th day
  DAI score (Mean ± SD): 1.967 ± 0.576
[1]; Table 15, as titled: intracolonic, TNBS model rats, 9th day
  DAI score (Mean ± SD): 1.633 ± 0.429
[1]; Table 15, as titled: intracolonic, TNBS model rats, 10th day
  DAI score (Mean ± SD): 1.267 ± 0.625
[1]; Table 15, as titled: intracolonic, TNBS model rats, 11th day
  DAI score (Mean ± SD): 1.067 ± 0.798
[2]; OXZ model rats, intragastric
  Gross damage score (Mean ± SD): 1.700 ± 1.494
[2]; [4]
  Gross damage score (Mean ± SD): 1.800 ± 1.229
  Histopathological score (Mean ± SD): 3.17 ± 1.33
[3]; intracolonic
  IFN-γ serum content (Mean ± SD): 84.51 ± 19.65 pg/mL
[3]; intragastric
  IFN-γ serum content (Mean ± SD): 93.88 ± 23.67 pg/mL
